Patent US20140249135A1, “PIM KINASE INHIBITORS AND METHODS OF THEIR USE” (NOVARTIS AG, priority 2007, published 2014)

Columns and labels:
Type in all cases: biochemical
Pim1 kinase = Pim1 kinase (Homo sapiens, UniProt P11309); experiment: Pim1 ATP depletion assay; conditions: Pim1 ATP depletion assay; read-out: IC50 (μM) PIM1;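 also: Luciferase-luciferin luminescence readout of residual ATP after PIM1 transfers phosphate to a peptide substrate, 40 µM ATP added, reaction run to roughly half ATP consumption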
Pim2 kinase = Pim2 kinase (Homo sapiens, UniProt Q9P1W9); experiment: Pim2 ATP depletion assay; conditions: read-out: IC50 (μM) PIM2;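 also: Luciferase-based luminescent readout of ATP remaining after PIM2 phosphorylates a BAD peptide, final 5 nM enzyme, 4 µM ATP, 10 µM peptide, 2.5% DMSO, run to roughly half ATP consumption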
Pim3 kinase = Pim3 kinase (Homo sapiens, UniProt Q86V86); experiment: Pim3 ATP depletion assay; conditions: read-out: IC50 (μM) PIM3

Measured: IC50

Chain of Pim2 kinase (Q9P1W9 whole entry): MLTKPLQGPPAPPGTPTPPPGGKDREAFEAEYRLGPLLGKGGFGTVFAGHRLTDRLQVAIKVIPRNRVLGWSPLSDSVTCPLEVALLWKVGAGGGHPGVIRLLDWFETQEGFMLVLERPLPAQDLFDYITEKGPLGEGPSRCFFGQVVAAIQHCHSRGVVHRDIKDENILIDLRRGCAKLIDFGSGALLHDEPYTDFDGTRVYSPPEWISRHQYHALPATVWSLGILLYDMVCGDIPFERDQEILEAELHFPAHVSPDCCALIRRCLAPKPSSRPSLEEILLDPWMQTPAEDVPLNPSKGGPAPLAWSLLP
Chain of Pim1 kinase (P11309 whole entry): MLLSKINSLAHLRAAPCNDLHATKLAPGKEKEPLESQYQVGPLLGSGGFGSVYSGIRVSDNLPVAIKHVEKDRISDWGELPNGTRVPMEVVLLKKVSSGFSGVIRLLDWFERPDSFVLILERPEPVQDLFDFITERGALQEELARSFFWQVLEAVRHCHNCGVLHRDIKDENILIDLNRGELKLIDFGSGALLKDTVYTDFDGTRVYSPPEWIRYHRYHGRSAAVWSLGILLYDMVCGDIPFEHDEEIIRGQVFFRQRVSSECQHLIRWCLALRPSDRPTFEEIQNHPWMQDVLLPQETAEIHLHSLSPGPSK

Nc1ccc(-c2ccsc2)nc1C(=O)Nc1cnccc1N1CCC[C@H](N)C1 [Example 449, 3-Amino-6-thiophen-3-yl-pyridine-2-carboxylic acid (3-amino-3,4,5,6-tetrahydro-2H-[1,4′]bipyridinyl-3′-yl)-amide]
< 1 µM: all assays above

Nc1ccc(-c2ccc(Cl)s2)nc1C(=O)Nc1cnccc1N1CCC[C@H](N)C1 [Example 450, 3-Amino-6-(5-chloro-thiophen-2-yl)-pyridine-2-carboxylic acid (3-amino-3,4,5,6-tetrahydro-2H-[1,4′]bipyridinyl-3′-yl)-amide]
< 1 µM: all assays above

Cc1csc(-c2ccc(N)c(C(=O)Nc3cnccc3N3CCC[C@H](N)C3)n2)c1 [Example 451, 3-Amino-6-(4-methyl-thiophen-2-yl)-pyridine-2-carboxylic acid (3-amino-3,4,5,6-tetrahydro-2H-[1,4′]bipyridinyl-3′-yl)-amide]
< 1 µM: all assays above

CCc1cccc(-c2ccc(N)c(C(=O)Nc3cnccc3N3CCC[C@H](N)C3)n2)c1 [Example 452, 3-Amino-6-(3-ethyl-phenyl)-pyridine-2-carboxylic acid (3-amino-3,4,5,6-tetrahydro-2H-[1,4′]bipyridinyl-3′-yl)-amide]
< 1 µM: all assays above

CC(C)NC(=O)c1ccc(F)c(-c2cccc(C(=O)Nc3cnccc3N3CCC[C@H](N)C3)n2)c1 [Example 453, 6-(2-Fluoro-5-isopropylcarbamoyl-phenyl)-pyridine-2-carboxylic acid (3-amino-3,4,5,6-tetrahydro-2H-[1,4′]bipyridinyl-3′-yl)-amide]
< 1 µM: all assays above

CC(C)c1cccc(-c2ccc(N)c(C(=O)Nc3cnccc3N3CCC[C@H](N)C3)n2)c1 [Example 456, 3-Amino-6-(3-isopropyl-phenyl)-pyridine-2-carboxylic acid (3-amino-3,4,5,6-tetrahydro-2H-[1,4′]bipyridinyl-3′-yl)-amide]
< 1 µM: all assays above

N#CCc1cccc(-c2ccc(N)c(C(=O)Nc3cnccc3N3CCC[C@H](N)C3)n2)c1 [Example 457, 3-Amino-6-(3-cyanomethyl-phenyl)-pyridine-2-carboxylic acid (3-amino-3,4,5,6-tetrahydro-2H-[1,4′]bipyridinyl-3′-yl)-amide]
< 1 µM: all assays above

Nc1ccc(-c2cccc(-c3ccccc3)c2)nc1C(=O)Nc1cnccc1N1CCC[C@H](N)C1 [Example 458, 3-Amino-6-biphenyl-3-yl-pyridine-2-carboxylic acid (3-amino-3,4,5,6-tetrahydro-2H-[1,4′]bipyridinyl-3′-yl)-amide]
< 1 µM: all assays above

Nc1ccc(-c2cccc(Br)c2)nc1C(=O)Nc1cnccc1N1CCC[C@H](N)C1 [Example 459, 3-Amino-6-(3-bromo-phenyl)-pyridine-2-carboxylic acid (3-amino-3,4,5,6-tetrahydro-2H-[1,4′]bipyridinyl-3′-yl)-amide]
< 1 µM: all assays above

Nc1ccc(-c2cccc(C(F)(F)F)c2)nc1C(=O)Nc1cnccc1N1CCC[C@H](N)C1 [Example 460, 3-Amino-6-(3-trifluoromethyl-phenyl)-pyridine-2-carboxylic acid (3-amino-3,4,5,6-tetrahydro-2H-[1,4′]bipyridinyl-3′-yl)-amide]
< 1 µM: all assays above

N#Cc1cccc(-c2ccc(N)c(C(=O)Nc3cnccc3N3CCC[C@H](N)C3)n2)c1 [Example 461, 3-Amino-6-(3-cyano-phenyl)-pyridine-2-carboxylic acid (3-amino-3,4,5,6-tetrahydro-2H-[1,4′]bipyridinyl-3′-yl)-amide]
< 1 µM: all assays above

Nc1ccc(-c2c(F)ccc(OCc3ccccc3Cl)c2F)nc1C(=O)Nc1cnccc1N1CCC[C@H](N)C1 [Example 464, 3-Amino-6-[3-(2-chloro-benzyloxy)-2,6-difluoro-phenyl]-pyridine-2-carboxylic acid (3-amino-3,4,5,6-tetrahydro-2H-[1,4′]bipyridinyl-3′-yl)-amide]
< 1 µM: all assays above

Nc1ccc(-c2c(F)ccc(OCc3ccccc3F)c2F)nc1C(=O)Nc1cnccc1N1CCC[C@H](N)C1 [Example 465, 3-Amino-6-[2,6-difluoro-3-(2-fluoro-benzyloxy)-phenyl]-pyridine-2-carboxylic acid (3-amino-3,4,5,6-tetrahydro-2H-[1,4′]bipyridinyl-3′-yl)-amide]
< 1 µM: all assays above

CCCCOc1ccc(F)c(-c2ccc(N)c(C(=O)Nc3cnccc3N3CCC[C@H](N)C3)n2)c1F [Example 466, 3-Amino-6-(3-butoxy-2,6-difluoro-phenyl)-pyridine-2-carboxylic acid (3-amino-3,4,5,6-tetrahydro-2H-[1,4′]bipyridinyl-3′-yl)-amide]
< 1 µM: all assays above

CC(C)Oc1ccc(F)c(-c2ccc(N)c(C(=O)Nc3cnccc3N3CCC[C@H](N)C3)n2)c1 [Example 467, 3-Amino-6-(2-fluoro-5-isopropoxy-phenyl)-pyridine-2-carboxylic acid (3-amino-3,4,5,6-tetrahydro-2H-[1,4′]bipyridinyl-3′-yl)-amide]
< 1 µM: all assays above

CCCOc1ccc(F)c(-c2ccc(N)c(C(=O)Nc3cnccc3N3CCC[C@H](N)C3)n2)c1 [Example 468, 3-Amino-6-(2-fluoro-5-propoxy-phenyl)-pyridine-2-carboxylic acid (3-amino-3,4,5,6-tetrahydro-2H-[1,4′]bipyridinyl-3′-yl)-amide]
< 1 µM: all assays above

CCOc1ccc(F)c(-c2ccc(N)c(C(=O)Nc3cnccc3N3CCC[C@H](N)C3)n2)c1 [Example 469, 3-Amino-6-(5-ethoxy-2-fluoro-phenyl)-pyridine-2-carboxylic acid (3-amino-3,4,5,6-tetrahydro-2H-[1,4′]bipyridinyl-3′-yl)-amide]
< 1 µM: all assays above

COc1ccc(F)c(-c2ccc(N)c(C(=O)Nc3cnccc3N3CCC[C@H](N)C3)n2)c1 [Example 470, 3-Amino-6-(2-fluoro-5-methoxy-phenyl)-pyridine-2-carboxylic acid (3-amino-3,4,5,6-tetrahydro-2H-[1,4′]bipyridinyl-3′-yl)-amide]
< 1 µM: all assays above

COc1cccc(-c2ccc(N)c(C(=O)Nc3cnccc3N3CCC[C@H](N)C3)n2)c1F [Example 471, 3-Amino-6-(2-fluoro-3-methoxy-phenyl)-pyridine-2-carboxylic acid (3-amino-3,4,5,6-tetrahydro-2H-[1,4′]bipyridinyl-3′-yl)-amide]
< 1 µM: all assays above

Cc1ccncc1-c1ccc(N)c(C(=O)Nc2cnccc2N2CCC[C@H](N)C2)n1 [Example 472, 5-Amino-4′-methyl-[2,3′]bi-pyridinyl-6-carboxylic acid (3-amino-3,4,5,6-tetrahydro-2H-[1,4′]bipyridinyl-3′-yl)-amide]
< 1 µM: all assays above

Nc1ccc(-c2ccc(-c3ccccc3)cc2)nc1C(=O)Nc1cnccc1N1CCC[C@H](N)C1 [Example 473, 3-Amino-6-biphenyl-4-yl-pyridine-2-carboxylic acid (3-amino-3,4,5,6-tetrahydro-2H-[1,4′]bipyridinyl-3′-yl)-amide]
< 1 µM: all assays above

Nc1ccc(-c2sccc2Cl)nc1C(=O)Nc1cnccc1N1CCC[C@H](N)C1 [Example 474, 3-Amino-6-(3-chloro-thiophen-2-yl)-pyridine-2-carboxylic acid (3-amino-3,4,5,6-tetrahydro-2H-[1,4′]bipyridinyl-3′-yl)-amide]
< 1 µM: all assays above

Nc1ccc(-c2cccs2)nc1C(=O)Nc1cnccc1N1CCC[C@H](N)C1 [Example 475, 3-Amino-6-thiophen-2-yl-pyridine-2-carboxylic acid (3-amino-3,4,5,6-tetrahydro-2H-[1,4′]bipyridinyl-3′-yl)-amide]
< 1 µM: all assays above

Cc1ccc(-c2ccc(N)c(C(=O)Nc3cnccc3N3CCC[C@H](N)C3)n2)c(F)n1 [Example 476, 5-Amino-2′-fluoro-6′-methyl-[2,3′]bipyridinyl-6-carboxylic acid (3-amino-3,4,5,6-tetrahydro-2H-[1,4′]bipyridinyl-3′-yl)-amide]
< 1 µM: all assays above
